Test results: US20250221960A1, “COMPOSITIONS AND METHODS FOR THE TREATMENT OF DEPRESSION” (Janssen Pharmaceuticals, Inc., priority 2022, published 2025)

Columns and labels:
[1] = Completion / early withdrawal, Example 1; assay type: in vivo, human; conditions: Full Safety Analysis Set; 10 mg, N = 85
Source text: Patients who passed the screening phase entered a lead in phase followed by a double-blind phase. Patients who responded to placebo during the lead in phase were labelled as non-responders. […] The double-blind treatment phase then continued for an additional 6 weeks, after which patients entered a withdrawal period.
Of the 121 subjects in the enriched population (60 in aticaprant and 61 in placebo group), 117 (96.7%) completed the study. The overall completion rate for the full ITT analysis set is 95%. This contrasts with completion rates of approximately 85% for studies of adjunctive aripiprazole (Pae, CNS Drugs, 2011; 25, 109-127) and 45-62% for adjunctive quetiapine (El Khalili cited above). In total 4 subjects (3.3%) discontinued the study: 2 subjects in placebo and 2 subjects in aticaprant treatment group. See, Tables 30 and 31.

subjects with MDD = assay: SHAPS total score (anhedonia), Example 1; assay type: in vivo, human; conditions: for SHAPS Total Score Change from Baseline LSMean (SE), MMRM / SHAPS Total Score Effect Size vs placebo / SHAPS Total Score LSMean Difference (SE) Treatment - Placebo, MMRM: 10 mg
Source text: To assess a potential effect on anhedonia, an anhedonia scale may be used. For example, the Snaith-Hamilton Pleasure Scale (SHAPS) analysis is a validated scale for the measurement of anhedonia. The SHAPS is a subject completed scale in which subjects score whether or not they experience pleasure in performing a list of activities or experiences. The SHAPS is a self-reported 14-item instrument, developed for the assessment of hedonic capacity. Subjects score whether they experience pleasure in performing a list of activities or experiences. Subjects can rate the answers as 1-4 where 1 indicates “Definitely agree”, 2 indicates “Agree”, 3 indicates “Disagree” and 4 indicates “Definitely disagree”. The subject's item responses are summed to provide a total score ranging from 14 to 56. A higher total SHAPS score indicates higher levels of current anhedonia. Physician/clinical judgment can be used to assess anhedonia separately or in conjunction with an anhedonia scale.
In some embodiments, the patient has anhedonia. In some embodiments, the patient has moderate anhedonia. In other embodiments, the patient has severe anhedonia. An assessment of moderate or severe anhedonia is typically determined physician/clinical judgment and/or by one or more tests that provide insight into whether a patient has anhedonia. For example, the severity of the anhedonia may be determined using the SHAPS method. In some embodiments, a patient with moderate or severe anhedonia is considered to have a high level of anhedonia. For example, a patient with a SHAPS score of 38 or greater is considered to have moderate to severe anhedonia that can be considered a high level of anhedonia. In some embodiments, a high level of anhedonia is reflected by a SHAPS score of at least about 40, about 42, about 44, about 46, about 48, about 50, about 52, about 54, about 56, about 58, or higher. A patient with mild or no anhedonia would be considered to have a low level of anhedonia that is assessed by physician/clinical judgment and/or one or more tests. For example, a patient with a SHAPS score of less than 38 is considered to have low anhedonia. In certain embodiments, a patient with mild anhedonia may have a SHAPS score of 20 to less than 38, for example, a SHAPS score of 20 to about 36, about 22 to about 36, about 24 to about 36, about 26 to about 36, about 26 to about 34, about 26 to about 32, about 26 to about 30, about 26 to about 28, about 28 to about 36, about 28 to about 36, about 30, to about 36, about 32 to about 36, about 34 to about 36, about 20 to about 34, about 22 to about 34, about 24 to about 34, about 26 to about 32, about 26 to about 30, about 26 to about 28, about 28 to about 36, about 28 to about 34, about 28 to about 32, about 28 to about 30, about 30 to about 36, about 30 to about 34, about 30 to about 32, about 32 to about 36, about 32 to about 34, or about 34 to about 36. Typically, a SHAPS score of less than 20 can be considered to correspond to normal hedonic functioning, and for purposes of this disclosure, would fall into the low category of anhedonia, e.g., a SHAPS score of less than 38.
iii. To investigate the effect of aticaprant versus placebo on depression related anhedonia as assessed by the SHAPS.
The treatment phase consisted of 3 periods. […] There were 11 scheduled visits, including screening.

## Cc1cc(C)cc(C2CCCN2Cc2ccc(Oc3ccc(C(N)=O)cc3F)cc2)c1 (centres unmarked) [aticaprant, 3-fluoro-4-4-2-(3,5-dimethylphenyl) pyrrolidin-1-yl-methylphenoxybenzamide]
[1]
  Reason For Withdrawal/Termination: Adverse event: 1 (1.2%)
Subjects with MDD; Treatment Week 6, eITT, N = 59
  Frequency of Subjects: High Level of Anhedonia (SHAPS Total Score >= 38): 8 (13.56%)
  Frequency of Subjects: Low Level of Anhedonia (20 <= SHAPS Total Score < 38): 48 (81.36%)
  Frequency of Subjects: No Anhedonia (SHAPS Total Score < 20): 3 (5.08%)
Subjects with MDD; Treatment Week 6, fITT, N = 77
  Frequency of Subjects: High Level of Anhedonia (SHAPS Total Score >= 38): 8 (10.39%)
  Frequency of Subjects: Low Level of Anhedonia (20 <= SHAPS Total Score < 38): 62 (80.52%)
  Frequency of Subjects: No Anhedonia (SHAPS Total Score < 20): 7 (9.09%)
Subjects with MDD; eITT, Treatment Week 1
  SHAPS Total Score Change from Baseline LSMean (SE), MMRM: −1.7
  SHAPS Total Score Effect Size vs placebo: −0.15
  SHAPS Total Score LSMean Difference (SE) Treatment - Placebo, MMRM: −0.8
Subjects with MDD; eITT, Treatment Week 3
  SHAPS Total Score Change from Baseline LSMean (SE), MMRM: −3.2
  SHAPS Total Score Effect Size vs placebo: −0.25
  SHAPS Total Score LSMean Difference (SE) Treatment - Placebo, MMRM: −1.4
Subjects with MDD; eITT, Treatment Week 4
  SHAPS Total Score Change from Baseline LSMean (SE), MMRM: −4.3
  SHAPS Total Score Effect Size vs placebo: −0.23
  SHAPS Total Score LSMean Difference (SE) Treatment - Placebo, MMRM: −1.4
Subjects with MDD; eITT, Treatment Week 5
  SHAPS Total Score Change from Baseline LSMean (SE), MMRM: −4.0
  SHAPS Total Score Effect Size vs placebo: −0.08
  SHAPS Total Score LSMean Difference (SE) Treatment - Placebo, MMRM: −0.5
Subjects with MDD; eITT, Treatment Week 6
  SHAPS Total Score Change from Baseline LSMean (SE), MMRM: −4.4
  SHAPS Total Score LSMean Difference (SE) Treatment - Placebo, MMRM: −0.7
Subjects with MDD; fITT, Treatment Week 1
  SHAPS Total Score Change from Baseline LSMean (SE), MMRM: −1.9
  SHAPS Total Score Effect Size vs placebo: −0.15
  SHAPS Total Score LSMean Difference (SE) Treatment - Placebo, MMRM: −1.0
Subjects with MDD; fITT, Treatment Week 3
  SHAPS Total Score Change from Baseline LSMean (SE), MMRM: −3.1
  SHAPS Total Score Effect Size vs placebo: −0.20
  SHAPS Total Score LSMean Difference (SE) Treatment - Placebo, MMRM: −1.4
Subjects with MDD; fITT, Treatment Week 4
  SHAPS Total Score Change from Baseline LSMean (SE), MMRM: −4.1
  SHAPS Total Score Effect Size vs placebo: −0.23
  SHAPS Total Score LSMean Difference (SE) Treatment - Placebo, MMRM: −1.6
Subjects with MDD; fITT, Treatment Week 5
  SHAPS Total Score Change from Baseline LSMean (SE), MMRM: −4.1
  SHAPS Total Score Effect Size vs placebo: −0.09
  SHAPS Total Score LSMean Difference (SE) Treatment - Placebo, MMRM: −0.8
Subjects with MDD; fITT, Treatment Week 6
  SHAPS Total Score Change from Baseline LSMean (SE), MMRM: −4.5
  SHAPS Total Score LSMean Difference (SE) Treatment - Placebo, MMRM: −0.8
